Assays:
[1] = Accelerated stability test at high temperature and high relative humidity; type: physicochemical; settings: 40° C., 75% RH, after one week
Description: (§1) Crystalline form A of TH-302 is anhydrous which is stable to 15% relative humidity (RH) at 25° C. No change in the chemical purity of TH-302 was observed after one week when in accelerated stability tests at high temperature (40° C.) and high relative humidity (75% RH). An improvement in the physical appearance of a dosage form of a drug enhances both physician and patient acceptance and increases the likelihood of success of the treatment.

[2] = Stability of crystalline form A to relative humidity; type: physicochemical; settings: 15% relative humidity (RH) at 25° C.; anhydrous crystalline form A
Description: as §1

Cn1c(COP(=O)(NCCBr)NCCBr)cnc1[N+](=O)[O-] [TH-302, N,N′-Bis(2-bromoethyl)phosphorodiamidic acid (1-methyl-2-nitro-1H-imidazol-5-yl)methyl ester]
change in the chemical purity [1]: No change | stability to relative humidity [2]: stable
